# Where two headings read alike, the source gives them in different places.
# Experiments:
# [1] = target: T1, F1F0-ATPase, OSCP subunit (UniProt P48047); experiment: F1F0-ATPase activity in SMPs reconstituted in the presence or absence of the OSCP; type: biochemical, bovine; parameters: rows headed: KJ IC50 reconst; not tied in print to the reconstitution assay; settings: read-out: KJ IC50 reconst
# T1 sequence (P48047 1-213): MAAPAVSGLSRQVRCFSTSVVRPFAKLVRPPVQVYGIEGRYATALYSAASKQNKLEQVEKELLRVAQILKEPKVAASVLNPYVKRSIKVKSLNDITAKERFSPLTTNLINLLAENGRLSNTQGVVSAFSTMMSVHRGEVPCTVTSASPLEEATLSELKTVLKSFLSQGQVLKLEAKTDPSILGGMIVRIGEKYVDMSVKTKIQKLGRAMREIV
# Method: (§1) An additional OSCP binding assay was conducted. […] Benzodiazepine derivative compounds that bind the OSCP include, but are not limited to: […]
# [2] = target: mitochondrial F1F0-ATPase (Homo sapiens, UniProt P48047); settings: read-out: BMS IC50 (hydr); cited from earlier work
# [3] = target: T2, mitochondrial F1F0-ATPase (Bos taurus, UniProt P13621+P32876); experiment: biochemical; parameters: species or system bovine; settings: for IC50: read-out: KJ IC50 (syn); for EC50: bovine SMPs
# [4] = target: T2, mitochondrial F1F0-ATPase; experiment: biochemical; parameters: species or system bovine; settings: for IC50: read-out: KJ IC50 (hydr); for EC50: bovine SMPs
# [5] = tested on: F1F0-ATPase, OSCP subunit; experiment: F1F0-ATPase activity in SMPs reconstituted in the presence or absence of the OSCP; type: biochemical, bovine; settings: without OSCP, at IC50
# Method: as §1
# [6] = tested on: isolated rat liver mitochondria; experiment: ROS production in isolated mitochondria (DCF oxidation); settings: aerobic conditions supporting state 3 respiration, slope versus control
# Method: Male Long Evans rats are starved overnight and sacrificed by decapitation. Liver samples are homogenized in ice cold buffer A (250 mM sucrose, 10 mM Tris, 0.1 mM EGTA, pH 7.4), and nuclei and cellular debris are pelleted (10 min, 830 g, 4° C.). Mitochondria are collected by centrifugation (10 min, 15,000 g, 4° C.), and the supernatant is collected as the S15 fraction. The mitochondrial pellet is washed three times with buffer B (250 mM sucrose, 10 mM Tris, pH 7.4), and re-suspended in buffer B at 20-30 mg/mL. Mitochondria are diluted (0.5 mg/mL) in buffer C (200 mM sucrose, 10 mM Tris, pH 7.4, 1 mM KH2PO4, 10 μM EGTA, 2.5 μM rotenone, 5 mM succinate) containing 2′,7′-dichlorodihydrofluorescin diacetate (DCFH-DA, 1 μM). For state 3 measurements, ADP (2 mM) is included in the buffer, and prior to the addition of Bz-423, mitochondria are allowed to charge for 2 min. To induce state 4, oligomycin (10 μM) is added to buffer C. […] To detect effects on O2^− and delta ψm, mitochondria are incubated for 15 min at 37° C. in buffer C with vehicle, Bz-423, or CCCP containing DHE (5 μM) or DIOC6(3) (20 nM), and aliquots are removed for analysis by fluorescence microscopy.
# O2^− production by Bz-423 may result from binding to a protein within mitochondria or a target in another compartment that signals mitochondria to generate ROS. […]
# Jurkat cells [7] = experiment: cell death at 24 h; type: cell-based; settings: for % Cell death: Jurkat cells, 75 μM PK11195, with or without antioxidant pre-incubation; for EC50: 24 h, read-out: Cell death EC50 (μM), Jurkat cells
# Method: (§2) Since an early mitochondrial superoxide (O2^−) mediates apoptosis induced by Bz-423, the O2^− response of cells 1 h following incubation with drug was examined, as well as cell death at 24 h, as previously described (see, e.g., Blatt, N. B., et al., 2002 J Clin Invest 110, 1123-1132; incorporated herein by reference in its entirety).
# Jurkat cells [8] = experiment: early O2− (ROS) response, 1 h; type: cell-based; settings: for % ROS+: Jurkat cells, 75 μM PK11195, with or without antioxidant pre-incubation; for EC50: 1 h, read-out: ROS EC50 (μM), Jurkat cells
# Method: (§3) To detect O2^−, cells are incubated with DHE (10 μM) for 30 min at 37° C. and are analyzed by flow cytometry to measure ethidium fluorescence. Flow analysis of mitochondrial transmembrane potential (ψm) is conducted by labeling cells with DiOC6(3) (20 nM) for 15 min at 37 degrees C. A positive control for disruption of ψm is established using carbonyl cyanide m-chlorophenylhydrazone (CCCP, 50 μM). Caspase activation assays are performed with FAM-VAD-fluoromethylketone. Processing of the substrate is evaluated by flow cytometry.
# as §2
# Ramos cells = experiment: early O2− (ROS) response, 1 h; type: cell-based, human; settings: for EC50: 1 h, read-out: ROS EC50 (μM), Ramos cells
# Method: as §3, §2
# Ramos B cells = experiment: cell death of Ramos B cells, propidium iodide exclusion by flow cytometry, 24 h; type: cell-based, human; settings: for EC50: 24 h
# [9] = ATPase activity EC50 (μM), Synthesis
# [10] = ATPase activity EC50 (μM), Hydrolysis
compound,measurement,setting,value
"CC(C)(C)c1ccc(S(=O)(=O)N2Cc3ccccc3N(Cc3c[nH]cn3)C(CCc3ccccc3)C2)cc1 (centres unmarked) [4-(4-tertbutylphenylsulfonyl)-1-(1H-imidazol-4-ylmethyl)-2-phenethyl-2,3,4,5-tetrahydro-1H-benzo[e][1,4]diazepine]",IC50,[1],20 nM
same,IC50,[2],8 nM
same,IC50,[3],5000 nM
same,IC50,[4],25 nM
same,% activity without OSCP at IC50,[5],77%
"O=S(=O)(N1Cc2ccccc2N(Cc2c[nH]cn2)C(CCc2ccccc2)C1)C(F)(F)F (centres unmarked) [4-trifluoromethylsulfonyl-1-(1H-imidazol-4-ylmethyl)-2-phenethyl-2,3,4,5-tetrahydro-1H-benzo[e][1,4]diazepine]",IC50,[1],50 nM
same,IC50,[2],77 nM
same,IC50,[3],3750 nM
same,IC50,[4],50 nM
same,% activity without OSCP at IC50,[5],78%
antimycin A,increase of the rate of ROS production,[6],nearly two-fold
vitamin E,% Cell death,Jurkat cells [7],55.9 ± 0.5%
same,% ROS+,Jurkat cells [8],33.9 ± 2.6%
"O=S(=O)(c1ccc(F)cc1)N1Cc2ccccc2N(Cc2c[nH]cn2)C(CCc2ccccc2)C1 (centres unmarked) [4-(4-fluorophenylsulfonyl)1-(1H-imidazol-4-ylmethyl)-2-phenethyl-2,3,4,5-tetrahydro-1H-benzo[e][1,4]diazepine]",IC50,[1],100 nM
same,IC50,[2],221 nM
same,IC50,[3],7500 nM
same,IC50,[4],150 nM
same,% activity without OSCP at IC50,[5],79%
"O=S(=O)(c1ccc(Cl)c(Cl)c1)N1Cc2ccccc2N(Cc2c[nH]cn2)C(CCc2ccccc2)C1 (centres unmarked) [4-(3,4-dichlorophenylsulfonyl)-1-(1H-imidazol-4-ylmethyl)-2-phenethyl-2,3,4,5-tetrahydro-1H-benzo[e][1,4]diazepine]",IC50,[1],50 nM
same,IC50,[2],22 nM
same,IC50,[3],5000 nM
same,IC50,[4],60 nM
same,% activity without OSCP at IC50,[5],76%
"CN1C(=O)CN=C(c2ccc(Cl)cc2)c2cc(Cl)ccc21 [Compound 4-Cl-Dz, 4-chlorodiazepam]",EC50,Ramos cells,180 µM
same,EC50,"Ramos B cells; read-out: Cell death EC50 (μM), Ramos cells",130 µM
same,EC50,Jurkat cells [7],> 300 µM
same,EC50,"[3]; read-out: ATPase activity EC50 (μM), Synthesis",210 µM
same,inhibition of mitochondrial ATPase activity,[4]; 80 μM,do not significantly inhibit mitochondrial ATPase activity
same,EC50,"[4]; read-out: ATPase activity EC50 (μM), Hydrolysis",> 300 µM
same,EC50,Jurkat cells [8],230 µM
"CN1C(=O)CN=C(c2ccccc2)c2cc(Cl)ccc21 [Dz, diazepam, reference compound]",EC50,"Ramos B cells; Homo sapiens, Ramos, read-out: EC50 (μM), cell death",> 80 µM
same,EC50,[3]; [9],210 µM
same,EC50,[4]; [10],> 300 µM
"O=C(O)c1ccc(-c2c3nc(c(-c4ccc(C(=O)O)cc4)c4ccc([nH]4)c(-c4ccc(C(=O)O)cc4)c4nc(c(-c5ccc(C(=O)O)cc5)c5ccc2[nH]5)C=C4)C=C3)cc1.[Mn+3] [MnTBAP, Manganese(III) meso-tetrakis(4-benzoic acid)porphyrin]",% Cell death,Jurkat cells [7],68.9 ± 1.0%
same,% ROS+,Jurkat cells [8],39.7 ± 2.8%
"S=C(Nc1ccc(Cl)cc1)OC(Cn1ccnc1)c1ccc(Cl)cc1Cl (centres unmarked) [(4-chlorophenyl)-thiocarbamic acid O-[1-(2,4-dichlorophenyl)-2-imidazol-1-yl-ethyl] ester]",IC50,[1],300 nM
same,IC50,[2],430 nM
same,IC50,[3],12500 nM
same,IC50,[4],750 nM
same,% activity without OSCP at IC50,[5],70%
"N#CN/C(=N/c1ccc(Cl)cc1Cl)NC(Cn1ccnc1)c1ccc(Cl)cc1Cl (centres unmarked) [(1-(2,4-dichlorophenyl)-2-(1H-imidazol-1-yl)ethyl)-3-(2,4-dichlorophenyl)-2-cyanoguanidine]",IC50,[1],4000 nM
same,IC50,[2],600 nM
same,IC50,[3],6000 nM
same,IC50,[4],> 3000 nM
"O=S(=O)(c1ccc(C(F)(F)F)cc1)N1Cc2ccccc2N(Cc2c[nH]cn2)C(CCc2ccccc2)C1 (centres unmarked) [4-(4-trifluoromethylphenylsulfonyl)-1-(1H-imidazol-4-ylmethyl)-2-phenethyl-2,3,4,5-tetrahydro-1H-benzo[e][1,4]diazepine]",IC50,[1],25 nM
same,IC50,[2],100 nM
same,IC50,[3],6000 nM
same,IC50,[4],50 nM
same,% activity without OSCP at IC50,[5],80%
"COc1ccc(S(=O)(=O)N2Cc3ccccc3N(Cc3c[nH]cn3)C(CCc3ccccc3)C2)cc1 (centres unmarked) [4-(4-methoxyphenylsulfonyl)-1-(1H-imidazol-4-ylmethyl)-2-phenethyl-2,3,4,5-tetrahydrol-1H-benzo[e][1,4]diazepine]",IC50,[1],50 nM
same,IC50,[2],77 nM
same,IC50,[3],7500 nM
same,IC50,[4],75 nM
same,% activity without OSCP at IC50,[5],81%
"N#CN/C(=N\C(Cn1ccnc1)c1cc(C(F)(F)F)ccc1C(F)(F)F)Nc1ccc(Cl)cc1Cl (centres unmarked) [(1-(2,5-bis(trifluoromethyl)phenyl)-2-(1H-imidazol-1-yl)ethyl)-3-(2,4-dichlorophenyl)-2-cyanoguanidine]",IC50,[1],250 nM
same,IC50,[2],710 nM
same,IC50,[3],3750 nM
same,IC50,[4],100 nM
"O=C1CN=C(c2ccccc2Cl)c2cc([N+](=O)[O-])ccc2N1 [Cz, clonazepam]",EC50,"Ramos cells; Homo sapiens, Ramos",> 300 µM
same,EC50,"Ramos B cells; Homo sapiens, Ramos, read-out: Cell death EC50 (μM), Ramos cells",> 300 µM
same,EC50,"Jurkat cells [7]; Homo sapiens, Jurkat",> 300 µM
same,EC50,[3]; [9],120 µM
same,EC50,[4]; [10],240 µM
same,EC50,"Jurkat cells [8]; Homo sapiens, Jurkat",> 300 µM
CN1C(=O)C(Cc2ccc3ccccc3c2)CN(c2ccc(O)cc2)c2cc(Cl)ccc21 (centres unmarked) [GD-423],response of Ramos cells at 1 hour,"Ramos cells; 1 hour, 2% FBS, DHE, FIG. 9",causes cell death
same,cellular death of Ramos cells,"Ramos B cells; 24 hours, 2% FBS, FIG. 8",causes cell death
"N#Cc1cccc(C(=O)/N=C(\Nc2ccc(Cl)cc2)NC(Cn2ccnc2)c2ccc(Cl)cc2Cl)c1 (racemic) [(+/−)-(1-(2,4-dichlorophenyl)-2-(1H-imidazol-1-yl)ethyl)-3-(4-chlorophenyl)-2-(3-cyanobenzoyl)guanidine]",IC50,[1],200 nM
same,IC50,[2],33 nM
same,IC50,[3],1500 nM
same,IC50,[4],100 nM
"O=S(=O)(c1ccc(O)cc1)N1Cc2ccccc2N(Cc2cnc[nH]2)C(CCc2ccccc2)C1 (centres unmarked) [4-(4-hydroxphenylsulfonyl)-1-(1H-imidazol-4-ylmethyl)-2-phenethyl-2,3,4,5-tetrahydro-1H-benzo[e][1,4]diazepine]",IC50,[1],500 nM
same,IC50,[2],667 nM
same,IC50,[3],20000 nM
same,IC50,[4],750 nM
same,% activity without OSCP at IC50,[5],77%
"Cc1[nH]cnc1CN1c2ccccc2CN(S(=O)(=O)c2ccc(C(C)(C)C)cc2)CC1CCc1ccccc1 (centres unmarked) [4-(4-tert-butylphenylsulfonyl)-1-(5-methyl-1H-imidazol-4-ylmethyl)-2-phenethyl-2,3,4,5-tetrahydro-1H-benzo[e][1,4]diazepine]",IC50,[1],5 nM
same,IC50,[2],77 nM
same,IC50,[3],15000 nM
same,IC50,[4],55 nM
same,% activity without OSCP at IC50,[5],80%

# Source: patent publication US20090275099A1 (priority 2004, published 2009)
